Assay results taken from US20240100170A1, “CYCLIC-AMP RESPONSE ELEMENT BINDING PROTEIN (CBP) AND/OR ADENOVIRAL E1A BINDING PROTEIN OF 300 KDA (P300) DEGRADATION COMPOUNDS AND METHODS OF USE” (CULLGEN (SHANGHAI), INC., priority 2020, published 2024).

test system: LNCaP prostate cancer cell; experiment: LNCaP cell viability (CellTiter-Glo); format: cell-based; conditions: 3 days, 3-fold serial dilution from 10 μM; FIG. 4
Procedure: LNCaP cells seeded in 96-well plates were treated with 10 μM GNE-781 or selected bivalent compounds, i.e. P-001, P-002, and P-019, following a 12-point 3-fold serial dilution. Three days after treatment, cell viability was determined using the CellTiter-Glo kit (Promega) following manufacturer's instructions. Cell viability was normalized to the mean values of 3 replicates of untreated cells. Dose-dependent response was analyzed following the least-squares non-linear regression method using the GraphPad Prism 5.0 software.
LNCaP (clone FGC), 22RV1 and other cells were cultured at 37° C. with 5% CO 2 in RPMI 1640 Medium supplemented with 10% fetal bovine serum. Cells were authenticated using the short tandem repeat (STR) assays. Mycoplasma test results were negative.
Cells were seeded at a density of 5000 cells per well in 96-well assay plates and treated with test compounds following a 12-point 3-fold serial dilution. Three days later, cell viability was determined using the CellTiter-Glo assay kit according to the manufactureR's instructions. The dose-response curves were determined and IC50 values were calculated using the GraphPad Prism software following a nonlinear regression (least squares fit) method.

Structure (SMILES) | viability of LNCaP cells
CNC(=O)N1CCc2c(c(N3CCCc4cc(-c5cnn(CC(=O)NCCCCCNc6ccc7c(c6)C(=O)N(C6CCC(=O)NC6=O)C7=O)c5)c(C(F)F)cc43)nn2C2CCOCC2)C1 (stereo not drawn) [P-019, 3-(7-(difluoromethyl)-6-(1-(2-((5-((2-(2,6-dioxopiperidin-3-yl)-1,3-dioxoisoindolin-5-yl)amino)pentyl)amino)-2-oxoethyl)-1H-pyrazol-4-yl)-3,4-dihydroquinolin-1(2H)-yl)-N-methyl-1-(tetrahydro-2H-pyran-4-yl)-1,4,6,7-tetrahydro-5H-pyrazolo[4,3-c]pyridine-5-carboxamide] | dose-dependently suppressed viability of LNCaP cells
CNC(=O)N1CCc2c(c(N3CCCc4cc(-c5cnn(C)c5)c(C(F)F)cc43)nn2C2CCN(C(=O)CCNc3ccc4c(c3)C(=O)N(C3CCC(=O)NC3=O)C4=O)CC2)C1 (stereo not drawn) [P-002, 3-(7-(difluoromethyl)-6-(1-methyl-1H-pyrazol-4-yl)-3,4-dihydroquinolin-1(2H)-yl)-1-(1-(3-((2-(2,6-dioxopiperidin-3-yl)-1,3-dioxoisoindolin-5-yl)amino)propanoyl)piperidin-4-yl)-N-methyl-1,4,6,7-tetrahydro-5H-pyrazolo[4,3-c]pyridine-5-carboxamide] | dose-dependently suppressed viability of LNCaP cells

same assay, conditions: Homo sapiens, 72 h; LNCaP cell viability, 3 days, CellTiter-Glo; Table 3

Structure (SMILES) | IC50 [nM]
CNC(=O)N1CCc2c(c(N3CCCc4cc(-c5cnn(CC(=O)NCCOCCOCC(=O)N[C@H](C(=O)N6C[C@H](O)C[C@H]6C(=O)NCc6ccc(-c7scnc7C)cc6)C(C)(C)C)c5)c(C(F)F)cc43)nn2C2CCOCC2)C1 [P-083, 3-(7-(difluoromethyl)-6-(1-((S)-13-((2S,4R)-4-hydroxy-2-((4-(4-methylthiazol-5-yl)benzyl)carbamoyl)pyrrolidine-1-carbonyl)-14,14-dimethyl-2,11-dioxo-6,9-dioxa-3,12-diazapentadecyl)-1H-pyrazol-4-yl)-3,4-dihydroquinolin-1(2H)-yl)-N-methyl-1-(tetrahydro-2H-pyran-4-yl)-1,4,6,7-tetrahydro-5H-pyrazolo[4,3-c]pyridine-5-carboxamide] | > 10000
CNC(=O)N1CCc2c(c(N3CCCc4cc(-c5cnn(CC(=O)NCCOCCOCCOCCOCCOCCC(=O)N[C@H](C(=O)N6C[C@H](O)C[C@H]6C(=O)NCc6ccc(-c7scnc7C)cc6)C(C)(C)C)c5)c(C(F)F)cc43)nn2C2CCOCC2)C1 [P-082] | > 10000

same assay, conditions: Homo sapiens, 72 h; LNCaP cell viability, 3 days, CellTiter-Glo; Table 4

Structure (SMILES) | IC50 [nM]
CC(=O)N1CCc2c(c(N3CCCc4cc(-c5cnn(C)c5)c(C(F)F)cc43)nn2C2CCN(C(=O)CN3CCN(CC(=O)Nc4cccc(NC5CCC(=O)NC5=O)c4)CC3)CC2)C1 (stereo not drawn) [P-257, 2-(4-(2-(4-(5-acetyl-3-(7-(difluoromethyl)-6-(1-methyl-1H-pyrazol-4-yl)-3,4-dihydroquinolin-1(2H)-yl)-4,5,6,7-tetrahydro-1H-pyrazolo[4,3-c]pyridin-1-yl)piperidin-1-yl)-2-oxoethyl)piperazin-1-yl)-N-(3-((2,6-dioxopiperidin-3-yl)amino)phenyl)acetamide] | > 500
CC(=O)N1CCc2c(c(N3CCCc4cc(-c5cnn(C)c5)c(C(F)F)cc43)nn2C2CCN(C(=O)CCCN3CCC(COc4ccc5c(c4)n(C)c(=O)n5C4CCC(=O)NC4=O)CC3)CC2)C1 (stereo not drawn) [P-206] | > 500
CC(=O)N1CCc2c(c(N3CCCc4cc(-c5cnn(C)c5)c(C(F)F)cc43)nn2C2CCN(C(=O)CCCC3CCN(CC(=O)Nc4cccc(NC5CCC(=O)NC5=O)c4)CC3)CC2)C1 (stereo not drawn) [P-262, 2-(4-(4-(4-(5-Acetyl-3-(7-(difluoromethyl)-6-(1-methyl-1H-pyrazol-4-yl)-3,4-dihydroquinolin-1(2H)-yl)-4,5,6,7-tetrahydro-1H-pyrazolo[4,3-c]pyridin-1-yl)piperidin-1-yl)-4-oxobutyl)piperidin-1-yl)-N-(3-((2,6-dioxopiperidin-3-yl)amino)phenyl)acetamide] | > 500
CC(=O)N1CCc2c(c(N3CCCc4cc(-c5cnn(C)c5)c(C(F)F)cc43)nn2C2CCN(C(=O)CCN3CCN(CC(=O)Nc4cccc(NC5CCC(=O)NC5=O)c4)CC3)CC2)C1 (stereo not drawn) [P-258, 2-(4-(3-(4-(5-acetyl-3-(7-(difluoromethyl)-6-(1-methyl-1H-pyrazol-4-yl)-3,4-dihydroquinolin-1(2H)-yl)-4,5,6,7-tetrahydro-1H-pyrazolo[4,3-c]pyridin-1-yl)piperidin-1-yl)-3-oxopropyl)piperazin-1-yl)-N-(3-((2,6-dioxopiperidin-3-yl)amino)phenyl)acetamide] | > 500
CC(=O)N1CCc2c(c(N3CCCc4cc(-c5cnn(C)c5)c(C(F)F)cc43)nn2C2CCN(C(=O)CCN3CCC(COc4ccc5c(c4)n(C)c(=O)n5C4CCC(=O)NC4=O)CC3)CC2)C1 (stereo not drawn) [P-203, 3-(5-((1-(3-(4-(5-acetyl-3-(7-(difluoromethyl)-6-(1-methyl-1H-pyrazol-4-yl)-3,4-dihydroquinolin-1(2H)-yl)-4,5,6,7-tetrahydro-1H-pyrazolo[4,3-c]pyridin-1-yl)piperidin-1-yl)-3-oxopropyl)piperidin-4-yl)methoxy)-3-methyl-2-oxo-2,3-dihydro-1H-benzo[d]imidazol-1-yl)piperidine-2,6-dione] | > 500
CC(=O)N1CCc2c(c(N3CCCc4cc(-c5cnn(C)c5)c(C(F)F)cc43)nn2C2CCN(C(=O)CCN3CCC(COc4cccc5c4n(C)c(=O)n5C4CCC(=O)NC4=O)CC3)CC2)C1 (stereo not drawn) [P-209, 3-(4-((1-(3-(4-(5-acetyl-3-(7-(difluoromethyl)-6-(1-methyl-1H-pyrazol-4-yl)-3,4-dihydroquinolin-1(2H)-yl)-4,5,6,7-tetrahydro-1H-pyrazolo[4,3-c]pyridin-1-yl)piperidin-1-yl)-3-oxopropyl)piperidin-4-yl)methoxy)-3-methyl-2-oxo-2,3-dihydro-1H-benzo[d]imidazol-1-yl)piperidine-2,6-dione] | > 500
CC(=O)N1CCc2c(c(N3CCCc4cc(-c5cnn(C)c5)c(C(F)F)cc43)nn2C2CCN(CCCCN3CCC(Cn4c(=O)n(C5CCC(=O)NC5=O)c5ccccc54)CC3)CC2)C1 (stereo not drawn) [P-236, 3-(3-((1-(4-(4-(5-acetyl-3-(7-(difluoromethyl)-6-(1-methyl-1H-pyrazol-4-yl)-3,4-dihydroquinolin-1(2H)-yl)-4,5,6,7-tetrahydro-1H-pyrazolo[4,3-c]pyridin-1-yl)piperidin-1-yl)butyl)piperidin-4-yl)methyl)-2-oxo-2,3-dihydro-1H-benzo[d]imidazol-1-yl) piperidine-2,6-dione] | 560
CC(=O)N1CCc2c(c(N3CCCc4cc(-c5cnn(C)c5)c(C(F)F)cc43)nn2C2CCN(C(=O)CCCN3CCC(Cn4c(=O)n(C5CCC(=O)NC5=O)c5ccccc54)CC3)CC2)C1 (stereo not drawn) [P-204, 3-(3-((1-(4-(4-(5-acetyl-3-(7-(difluoromethyl)-6-(1-methyl-1H-pyrazol-4-yl)-3,4-dihydroquinolin-1(2H)-yl)-4,5,6,7-tetrahydro-1H-pyrazolo[4,3-c]pyridin-1-yl)piperidin-1-yl)-4-oxobutyl)piperidin-4-yl)methyl)-2-oxo-2,3-dihydro-1H-benzo[d]imidazol-1-yl)piperidine-2,6-dione] | > 500
